Measured values reported in ChEMBL document CHEMBL1201862, “PubChem BioAssay data set” (2004).
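These data come from cells grown in 96-well plates and exposed to compound for 48 hours at five concentrations. Abbreviation: GI50, concentration required for 50% inhibition of growth.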 Active and inactive are the calls of the source. Rule as the data show it: active = GI50 up to about 1.1 µM and inactive = higher.

How the values were obtained:
Assay in all cases: NCI-60 cell line screen, 48 h
[1] = system: OVCAR-5
[2] = system: OVCAR-4
[3] = system: NCI-H522
[4] = system: CCRF-CEM
[5] = system: PC-3
[6] = system: Malme-3M
[7] = system: DU-145
[8] = system: SF-295
[9] = system: UACC-62
[10] = system: HCC 2998
[11] = system: HOP-62
[12] = system: KM12
[13] = system: SN12C
[14] = system: BT-549
[15] = system: SK-OV-3
[16] = system: UO-31
[17] = system: M14
[18] = system: SF-539
[19] = system: HCT-116
[20] = system: T47D

SMILES | GI50 [1] | GI50 [2] | GI50 [3] | GI50 [4] | GI50 [5] | GI50 [6] | GI50 [7] | GI50 [8] | GI50 [9] | GI50 [10] | GI50 [11] | GI50 [12] | GI50 [13] | GI50 [14] | GI50 [15] | GI50 [16] | GI50 [17] | GI50 [18] | GI50 [19] | GI50 [20]
Cc1ccc(/N=N/c2c(O)ccc3cc(S(=O)(=O)O)ccc23)c(C)c1 | > 100 µM (inactive) | > 100 µM (inactive) | > 100 µM (inactive) | > 100 µM (inactive) | > 100 µM (inactive) | > 100 µM (inactive) | > 100 µM (inactive) | > 100 µM (inactive) | > 100 µM (inactive) | > 100 µM (inactive) | > 100 µM (inactive) | > 100 µM (inactive) | > 100 µM (inactive) | > 100 µM (inactive) | > 100 µM (inactive) | > 100 µM (inactive) | > 100 µM (inactive) | > 100 µM (inactive) | > 100 µM (inactive) | > 100 µM (inactive)
O=C(CCBr)N1CCN(C(=O)CCBr)CC1 [PIPOBROMAN] | 103 µM (inactive) | 86.9 µM (inactive) | 63.2 µM (inactive) | 15.1 µM (inactive) | 113 µM (inactive) | 101 µM (inactive) | 64.6 µM (inactive) | 57.3 µM (inactive) | 18 µM (inactive) | 69.3 µM (inactive) | 60.3 µM (inactive) | > 93.5 µM (inactive) | 42.6 µM (inactive) | 61.8 µM (inactive) | 105 µM (inactive) | 120 µM (inactive) | 57.7 µM (inactive) | 62.5 µM (inactive) | 71.3 µM (inactive) | 106 µM (inactive)
CN(C)/N=N/c1ccc2[nH]c(=O)[nH]c2c1 | > 100 µM (inactive) | > 100 µM (inactive) | > 100 µM (inactive) | 62.2 µM (inactive) | > 100 µM (inactive) | > 100 µM (inactive) | > 100 µM (inactive) | > 100 µM (inactive) | > 100 µM (inactive) | > 100 µM (inactive) | > 100 µM (inactive) | > 100 µM (inactive) | > 100 µM (inactive) | > 100 µM (inactive) | > 100 µM (inactive) | > 100 µM (inactive) | > 100 µM (inactive) | > 100 µM (inactive) | > 100 µM (inactive) | > 100 µM (inactive)
CC[C@@]1(O)C(=O)OCc2c1cc1n(c2=O)Cc2c-1nc1ccc(N)cc1c2CC[Si](C)(C)C | < 0.0223 µM (active) | 0.015 µM (active) | < 0.01 µM (active) | < 0.01 µM (active) | < 0.0229 µM (active) | < 0.0115 µM (active) | < 0.01 µM (active) | < 0.01 µM (active) | < 0.01 µM (active) | < 0.0111 µM (active) | < 0.01 µM (active) | 0.0155 µM (active) | < 0.01 µM (active) | < 0.01 µM (active) | < 0.01 µM (active) | < 0.01 µM (active) | < 0.01 µM (active) | < 0.01 µM (active) | < 0.01 µM (active) | < 0.01 µM (active)
COc1cc(C2c3cc4c(cc3OC(N3CCOCC3)C2C)OCO4)cc(OC)c1OC(C)=O (stereo not given) | 49.1 µM (inactive) | 57.3 µM (inactive) | 4.3 µM (inactive) | 11.7 µM (inactive) | 13.5 µM (inactive) | 5.9 µM (inactive) | 26.5 µM (inactive) | 4.15 µM (inactive) | 5.53 µM (inactive) | 11.9 µM (inactive) | 12.4 µM (inactive) | 5.35 µM (inactive) | 17.7 µM (inactive) | 7.89 µM (inactive) | 11.3 µM (inactive) | 28.4 µM (inactive) | 9.06 µM (inactive) | 13.3 µM (inactive) | 7.52 µM (inactive) | 17.4 µM (inactive)
CCCNC1=C2C[C@@H](C)C[C@@H](OC)[C@@H](OC(=O)CCCN)[C@H](C)/C=C(\C)[C@@H](OC(N)=O)[C@H](OC)/C=C\C=C(/C)C(=O)NC(=CC1=O)C2=O | 15.2 µM (inactive) | 18.7 µM (inactive) | 5.02 µM (inactive) | 2.52 µM (inactive) | 12.6 µM (inactive) | 12.4 µM (inactive) | 12.1 µM (inactive) | 18.7 µM (inactive) | 13.9 µM (inactive) | 18.8 µM (inactive) | 15.6 µM (inactive) | 10.6 µM (inactive) | 22.7 µM (inactive) | 13.2 µM (inactive) | 16.4 µM (inactive) | 19.2 µM (inactive) | 15.2 µM (inactive) | 20.3 µM (inactive) | 8.97 µM (inactive) | 12.7 µM (inactive)
C/C=N\n1c(C)c(C#N)c(C#N)c1N | > 100 µM (inactive) | > 100 µM (inactive) | > 100 µM (inactive) | > 100 µM (inactive) | > 100 µM (inactive) | > 100 µM (inactive) | > 100 µM (inactive) | > 100 µM (inactive) | > 100 µM (inactive) | > 100 µM (inactive) | > 100 µM (inactive) | > 100 µM (inactive) | > 100 µM (inactive) | > 100 µM (inactive) | > 100 µM (inactive) | > 100 µM (inactive) | > 100 µM (inactive) | > 100 µM (inactive) | > 100 µM (inactive) | > 100 µM (inactive)
CCCCCCCCCCc1c2nc(c(CCCCCCCCCC)c3ccc([nH]3)c(CCCCCCCCCC)c3nc(c(CCCCCCCCCC)c4ccc1[nH]4)C=C3)C=C2 | > 100 µM (inactive) | > 100 µM (inactive) | > 100 µM (inactive) | > 100 µM (inactive) | > 100 µM (inactive) | > 100 µM (inactive) | > 100 µM (inactive) | > 100 µM (inactive) | > 100 µM (inactive) | > 100 µM (inactive) | > 100 µM (inactive) | > 100 µM (inactive) | > 100 µM (inactive) | > 100 µM (inactive) | > 100 µM (inactive) | > 100 µM (inactive) | > 100 µM (inactive) | > 100 µM (inactive) | > 100 µM (inactive) | > 100 µM (inactive)
O=C1C=CC(=O)c2c1ccc1c3ccccc3n(-c3cccc([N+](=O)[O-])c3)c21 | > 10 µM (inactive) | 2.81 µM (inactive) | 1.91 µM (inactive) | 0.357 µM (active) | > 8.3 µM (inactive) | 1.98 µM (inactive) | > 10 µM (inactive) | > 10 µM (inactive) | 2.13 µM (inactive) | > 10 µM (inactive) | > 10 µM (inactive) | > 7.98 µM (inactive) | 3.96 µM (inactive) | 1.69 µM (inactive) | > 10 µM (inactive) | 2.4 µM (inactive) | 1.73 µM (inactive) | > 5.05 µM (inactive) | 1.92 µM (inactive) | 2.38 µM (inactive)
OCCO[P+]1(OCCO)n2c3ccc2C(c2ccccc2)=C2C=CC(=N2)C(c2ccccc2)=c2ccc(n21)=C(c1ccccc1)C1=NC(=C3c2ccccc2)C=C1 | 0.102 µM (active) | 0.0719 µM (active) | 0.0405 µM (active) | 0.0158 µM (active) | 0.0299 µM (active) | 0.0408 µM (active) | 0.0316 µM (active) | 0.15 µM (active) | 0.0303 µM (active) | 0.0195 µM (active) | 0.0708 µM (active) | 0.0247 µM (active) | 0.0253 µM (active) | 0.0118 µM (active) | 0.0561 µM (active) | 1.14 µM (inactive) | 0.163 µM (active) | 0.0335 µM (active) | 0.0218 µM (active) | 0.0251 µM (active)
CC(=O)Oc1ccc(/C=C/C(=O)O[C@@H](C)[C@H](C)OC(=O)/C=C/c2ccc(OC(C)=O)c(OC(C)=O)c2)cc1OC(C)=O | 21.2 µM (inactive) | 28.7 µM (inactive) | 6.37 µM (inactive) | 3.94 µM (inactive) | 23.1 µM (inactive) | 22.9 µM (inactive) | 21.9 µM (inactive) | 11.2 µM (inactive) | 8.41 µM (inactive) | 11.4 µM (inactive) | 7.45 µM (inactive) | 9.46 µM (inactive) | 19.6 µM (inactive) | 10 µM (inactive) | 19.5 µM (inactive) | 5.94 µM (inactive) | 11.4 µM (inactive) | > 100 µM (inactive) | 7.5 µM (inactive) | 13 µM (inactive)
O=C1NC(O)c2cc3ccccc3cc2O1 (stereo not given) | > 100 µM (inactive) | 76 µM (inactive) | > 100 µM (inactive) | 29.2 µM (inactive) | 31.1 µM (inactive) | 59.7 µM (inactive) | > 100 µM (inactive) | > 100 µM (inactive) | 21.7 µM (inactive) | > 100 µM (inactive) | > 100 µM (inactive) | > 100 µM (inactive) | 69 µM (inactive) | 26.4 µM (inactive) | > 100 µM (inactive) | > 100 µM (inactive) | 38.6 µM (inactive) | 28 µM (inactive) | 20 µM (inactive) | 25.5 µM (inactive)
CC(C)(C)c1ccc(O)c(Br)c1 | > 100 µM (inactive) | > 100 µM (inactive) | > 100 µM (inactive) | > 100 µM (inactive) | > 100 µM (inactive) | > 100 µM (inactive) | > 100 µM (inactive) | > 100 µM (inactive) | 95.9 µM (inactive) | 51.8 µM (inactive) | > 100 µM (inactive) | 63.5 µM (inactive) | > 100 µM (inactive) | > 100 µM (inactive) | > 100 µM (inactive) | > 100 µM (inactive) | > 100 µM (inactive) | > 100 µM (inactive) | > 100 µM (inactive) | 11.5 µM (inactive)
